From patent US9029377B2, “Platelet-activating factor receptor antagonists” (Merck Sharp & Dohme Corp., priority 2009, dated 2015) come the findings set out here.

This test deals with PAFR (Homo sapiens, UniProt P25105). The experiment in a line: PAF Binding Assay (PAFR binding).
Chain of PAFR (P25105 whole entry): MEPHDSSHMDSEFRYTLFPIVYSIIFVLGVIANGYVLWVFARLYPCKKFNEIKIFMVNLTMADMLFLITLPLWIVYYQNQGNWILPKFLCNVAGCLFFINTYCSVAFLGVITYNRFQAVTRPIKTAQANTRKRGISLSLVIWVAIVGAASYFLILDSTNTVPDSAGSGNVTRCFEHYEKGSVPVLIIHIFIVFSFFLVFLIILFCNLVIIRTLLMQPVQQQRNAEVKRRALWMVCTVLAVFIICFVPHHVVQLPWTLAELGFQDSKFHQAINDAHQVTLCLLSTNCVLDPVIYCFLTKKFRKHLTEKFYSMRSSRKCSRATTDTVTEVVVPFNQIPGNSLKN
One may read the IC50 as the concentration at which inhibition is half-maximal. The compound `CCc1cc(OCCCC(F)(F)F)ccc1S(=O)(=O)N[C@H]1CCC[C@@H](n2cnnc2)C1` [Compound 2Abi, 2-ethyl-N-[(1S,3R)-3-(4H-1,2,4-triazol-4-yl)cyclohexyl]-4-(4,4,4-trifluorobutoxy)benzenesulfonamide] yielded an IC50 of 2.7 nM.

The compound `O=S(=O)(N[C@H]1CCC[C@@H](n2cnnc2)C1)c1cc(-c2ccccc2OC(F)(F)F)cc(C(F)(F)F)c1` [Compound 3Am, N-[(1S,3R)-3-(4H-1,2,4-triazol-4-yl)cyclohexyl]-2′-(trifluoromethoxy)-5-(trifluoromethyl)biphenyl-3-sulfonamide] gave an IC50 of 4.9 nM. Then `CCc1cc(-c2ccnnc2)cc(S(=O)(=O)N[C@H]2CCC[C@@H](n3cnnc3)C2)c1` [Compound 3Baz, 3-ethyl-5-pyridazin-4-yl-N-[(1S,3R)-3-(4H-1,2,4-triazol-4-yl)cyclohexyl]benzenesulfonamide], with 208 nM. On to `Cc1nncn1[C@H]1C[C@@H](NS(=O)(=O)c2ccc(-c3noc(C4CC4)n3)cc2C2CC2)CC(F)(F)C1` [Compound 2Lj, 2-cyclopropyl-4-(5-cyclopropyl-1,2,4-oxadiazol-3-yl)-N-[(1R,5S)-3,3-difluoro-5-(3-methyl-4H-1,2,4-triazol-4-yl)cyclohexyl]benzenesulfonamide], for which the IC50 was found to be 1.3 nM. On to `CCOC(=O)c1cn2cc(Cl)cc(-c3cc(C(F)(F)F)cc(S(=O)(=O)N[C@H]4CCC[C@@H](n5cnnc5)C4)c3)c2n1` [Compound 3Aaw, ethyl 6-chloro-8-[3-({[(1S,3R)-3-(4H-1,2,4-triazol-4-yl)cyclohexyl]amino}sulfonyl)-5-(trifluoromethyl)phenyl]imidazo[1,2-a]pyridine-2-carboxylate], for which the IC50 amounted to 0.5 nM. For `CCc1cc(-c2cncs2)ccc1S(=O)(=O)N[C@H]1CCC[C@@H](n2cnnc2)C1` [Compound 2Aax, 2-ethyl-4-(1,3-thiazol-5-yl)-N-[(1S,3R)-3-(4H-1,2,4-triazol-4-yl)cyclohexyl]benzenesulfonamide] the value was 203 nM. Then `CCc1cc(-c2ccc(OC(F)F)cc2)ccc1S(=O)(=O)N[C@H]1CCC[C@@H](n2cnnc2)C1` [Compound 2Ay, 4′-(difluoromethoxy)-3-ethyl-N-[(1S,3R)-3-(4H-1,2,4-triazol-4-yl)cyclohexyl]biphenyl-4-sulfonamide], with 2.5 nM; and `Cc1nncn1[C@@H]1CCC[C@H](NS(=O)(=O)c2ccc(-c3noc(C4CC4)n3)c(F)c2)C1` [Compound 2Fh, 4-(5-cyclopropyl-1,2,4-oxadiazol-3-yl)-3-fluoro-N-[(1S,3R)-3-(3-methyl-4H-1,2,4-triazol-4-yl)cyclohexyl]benzenesulfonamide], with 9.9 nM. For `CCc1cc(-n2cccn2)ccc1S(=O)(=O)N[C@H]1CCC[C@@H](n2cnnc2)C1` [Compound 6a, 2-ethyl-4-(1H-pyrazol-1-yl)-N-[(1S,3R)-3-(4H-1,2,4-triazol-4-yl)cyclohexyl]benzenesulfonamide] the value was 68 nM. Compound `Cc1nncn1[C@@H]1CCC[C@H](NS(=O)(=O)c2ccc(-c3ccc(OC(F)(F)F)cc3)cc2OC(F)(F)F)C1` [Compound 2Bbd, N-[(1S,3R)-3-(3-methyl-4H-1,2,4-triazol-4-yl)cyclohexyl]-3,4′-bis(trifluoromethoxy)biphenyl-4-sulfonamide] registered an IC50 of 6.2 nM. For `CCc1cc(-c2ccc3c(c2)OCO3)ccc1S(=O)(=O)N[C@H]1CCC[C@@H](n2cnnc2)C1` [Compound 2Ax, 4-(1,3-benzodioxol-5-yl)-2-ethyl-N-[(1S,3R)-3-(4H-1,2,4-triazol-4-yl)cyclohexyl]benzenesulfonamide] the value was 38 nM. For `CCc1cc(-c2cncc(OC)c2)ccc1S(=O)(=O)N[C@H]1CCC[C@@H](n2cnnc2)C1` [Compound 2Aan, 2-ethyl-4-(5-methoxypyridin-3-yl)-N-[(1S,3R)-3-(4H-1,2,4-triazol-4-yl)cyclohexyl]benzenesulfonamide] the value was 71 nM; for `O=S(=O)(N[C@H]1CCC[C@@H](n2cnnc2)C1)c1cc(-c2ccsc2)cc(C(F)(F)F)c1` [Compound 3Aar, 3-(3-thienyl)-N-[(1S,3R)-3-(4H-1,2,4-triazol-4-yl)cyclohexyl]-5-(trifluoromethyl)benzenesulfonamide], 9.2 nM; for `CCc1cc(-c2ccc(C(F)(F)F)cc2C)ccc1S(=O)(=O)N[C@H]1CCC[C@@H](n2cnnc2)C1` [Compound 2Abn, 3-ethyl-2′-methyl-N-[(1S,3R)-3-(4H-1,2,4-triazol-4-yl)cyclohexyl]-4′-(trifluoromethyl)biphenyl-4-sulfonamide], 22 nM.

In the case of `CCCCOc1ccc(S(=O)(=O)N[C@@H]2C[C@H](n3cnnc3C)CC(F)(F)C2)cc1` [Compound 2Qw, 4-butoxy-N-[(1R,5S)-3,3-difluoro-5-(3-methyl-4H-1,2,4-triazol-4-yl)cyclohexyl]benzenesulfonamide], the IC50 was 4.2 nM. Then `CCc1cc(-c2ccc(NC(C)=O)cc2)ccc1S(=O)(=O)N[C@H]1CCC[C@@H](n2cnnc2)C1` [Compound 2Aao, N′-[3′-ethyl-4′-({[(1S,3R)-3-(4H-1,2,4-triazol-4-yl)cyclohexyl]amino}sulfonyl)biphenyl-4-yl]acetamide], with 57 nM; and `CCc1cc(-c2cccc3cccnc23)ccc1S(=O)(=O)N[C@H]1CCC[C@@H](n2cnnc2)C1` [Compound 2Aae, 2-ethyl-4-quinolin-8-yl-N-[(1S,3R)-3-(4H-1,2,4-triazol-4-yl)cyclohexyl]benzenesulfonamide], with 4.9 nM; and `CCc1cc(-c2ccc(OC(F)(F)F)c(F)c2)ccc1S(=O)(=O)N[C@H]1CCC[C@@H](n2cnnc2)C1` [Compound 2Aac, 3-ethyl-3′-fluoro-N-[(1S,3R)-3-(4H-1,2,4-triazol-4-yl)cyclohexyl]-4′-(trifluoromethoxy)biphenyl-4-sulfonamide], with 13 nM.

As for `O=S(=O)(N[C@H]1CCC[C@@H](n2cnnc2C2CC2)C1)c1ccc(-c2noc(C3CC(F)(F)C3)n2)cc1OC(F)(F)F` [Compound 2Bd, N-[(1S,3R)-3-(3-cycloropyl-4H-1,2,4-triazol-4-yl)cyclohexyl]-4-[5-(3,3-difluorocyclobutyl)-1,2,4-oxadiazol-3-yl]-2-(trifluoromethoxy)benzenesulfonamide], the IC50 stood at 6.3 nM. `Cc1nncn1[C@H]1C[C@@H](NS(=O)(=O)c2cc(-c3cccc4cccnc34)cc(C(F)(F)F)c2)CC(F)(F)C1` [Compound 3Ca, N-[(1R,5S)-3,3-difluoro-5-(3-methyl-4H-1,2,4-triazol-4-yl)cyclohexyl]-3-quinolin-8-yl-5-(trifluoromethyl)benzenesulfonamide] came in with an IC50 of 0.4 nM. Then `O=S(=O)(N[C@H]1CCC[C@@H](n2cnnc2)C1)c1cc(-c2cncc3ccccc23)cc(C(F)(F)F)c1` [3 Ay, 3-isoquinolin-4-yl-N-[(1S,3R)-3-(4H-1,2,4-triazol-4-yl)cyclohexyl]-5-(trifluoromethyl)benzenesulfonamide], with 20 nM; and “4′-(difluoromethoxy)-N-[(1R,5S)-3,3-difluoro-5-(4H-1,2,4-triazol-4-yl)cyclohexyl]-2-ethylbenzenesulfonamide [Compound 2Caf]”, with 12 nM.

For the compound `Cc1nncn1[C@@H]1CCC[C@H](NS(=O)(=O)c2ccc(C(C)(C)C)cc2)C1` [Compound 2Np, 4-tert-butyl-N-[(1S,3R)-3-(3-methyl-4H-1,2,4-triazol-4-yl)cyclohexyl]benzenesulfonamide], the IC50 came out at 51 nM.

Compound `Cc1nncn1[C@@H]1CCC[C@H](NS(=O)(=O)c2ccc(OCCCC(F)(F)F)cc2)C1` [Compound 2Nac, N-[(1S,3R)-3-(3-methyl-4H-1,2,4-triazol-4-yl)cyclohexyl]-4-(4,4,4-trifluorobutoxy)benzenesulfonamide] yielded an IC50 of 4.7 nM. This IC50 lies about 11-fold lower than the previous one.

Consider `O=S(=O)(N[C@H]1CCC[C@@H](n2cnnc2)C1)c1cc(-c2noc(C3CC3)n2)cc(C(F)(F)F)c1` [Compound 3Ah, 3-(5-cyclopropyl-1,2,4-oxadiazol-3-yl)-N-[(1S,3R)-3-(4H-1,2,4-triazol-4-yl)cyclohexyl]-5-(trifluoromethyl)benzenesulfonamide], for which the IC50 came out at 7.8 nM. Against the preceding compound, the IC50 is about 1.7-fold higher.

`CCc1cc(-c2cc(Cl)cn3ccnc23)ccc1S(=O)(=O)N[C@H]1CCC[C@@H](n2cnnc2)C1` [Compound 2Aat, 4-(6-chloroimidazo[1,2-a]pyridin-8-yl)-2-ethyl-N-[(1S,3R)-3-(4H-1,2,4-triazol-4-yl)cyclohexyl]benzenesulfonamide]: the IC50 turned out to be 2.2 nM. `Cc1nncn1[C@@H]1CCC[C@H](NS(=O)(=O)c2ccc(OCCCCF)c(F)c2)C1` [Compound 2Fi, 3-fluoro-4-(4-fluorobutoxy)-N-[(1S,3R)-3-(3-methyl-4H-1,2,4-triazol-4-yl)cyclohexyl]benzenesulfonamide] returned an IC50 of 9.7 nM. For `O=S(=O)(N[C@H]1CCC[C@@H](n2cnnc2)C1)c1cc(-c2cccnc2OCC(F)(F)F)cc(C(F)(F)F)c1` [Compound 3Aam, N-[(1S,3R)-3-(4H-1,2,4-triazol-4-yl)cyclohexyl]-3-[2-(2,2,2-trifluoroethoxy)pyridin-3-yl]-5-(trifluoromethyl)benzenesulfonamide] the value was 3.2 nM. Consider `O=S(=O)(N[C@H]1CCC[C@@H](n2cnnc2)C1)c1cc(-c2ccccc2)cc(C(F)(F)F)c1` [Compound 3Ae, N-[(1S,3R)-3-(4H-1,2,4-triazol-4-yl)cyclohexyl]-5-(trifluoromethyl)biphenyl-3-sulfonamide], for which the IC50 is 5.9 nM. Compound `O=S(=O)(N[C@H]1CCC[C@@H](n2cnnc2)C1)c1cc(-c2ccc3nc(C(F)(F)F)cn3n2)cc(C(F)(F)F)c1` [Compound 3Aaj, N-[(1S,3R)-3-(4H-1,2,4-triazol-4-yl)cyclohexyl]-3-(trifluoromethyl)-5-[2-(trifluoromethyl)imidazo[1,2-b]pyridazin-6-yl]benzenesulfonamide] returned an IC50 of 27 nM.

The compound `CCc1cc(-c2ccc(C(F)(F)F)cc2C(F)(F)F)ccc1S(=O)(=O)N[C@H]1CCC[C@@H](n2cnnc2)C1` [Compound 2Abm, 3-ethyl-N-[(1S,3R)-3-(4H-1,2,4-triazol-4-yl)cyclohexyl]-2′,4′-bis(trifluoromethyl)biphenyl-4-sulfonamide] came in with an IC50 of 83 nM.
